# Key:
# sGC enzyme = molecular target: T1, sGC enzyme (Homo sapiens, UniProt Q02108+Q02153); assay: cGMP GloSensor cell-based assay, 384-well format (Example 2a); conditions: HEK293 GloSensor 40F cGMP cells; 10 μM DETA-NONOate; 50% of high control (30 μM Compound Y); read-out: Abs EC50
# T1 construct: sGC enzyme activity values in HEK cells, determined by the GloSensor assay; host or cells: HEK293 cells stably expressing GloSensor 40F cGMP biosensor
# T1 sequence (Q02153 1-619): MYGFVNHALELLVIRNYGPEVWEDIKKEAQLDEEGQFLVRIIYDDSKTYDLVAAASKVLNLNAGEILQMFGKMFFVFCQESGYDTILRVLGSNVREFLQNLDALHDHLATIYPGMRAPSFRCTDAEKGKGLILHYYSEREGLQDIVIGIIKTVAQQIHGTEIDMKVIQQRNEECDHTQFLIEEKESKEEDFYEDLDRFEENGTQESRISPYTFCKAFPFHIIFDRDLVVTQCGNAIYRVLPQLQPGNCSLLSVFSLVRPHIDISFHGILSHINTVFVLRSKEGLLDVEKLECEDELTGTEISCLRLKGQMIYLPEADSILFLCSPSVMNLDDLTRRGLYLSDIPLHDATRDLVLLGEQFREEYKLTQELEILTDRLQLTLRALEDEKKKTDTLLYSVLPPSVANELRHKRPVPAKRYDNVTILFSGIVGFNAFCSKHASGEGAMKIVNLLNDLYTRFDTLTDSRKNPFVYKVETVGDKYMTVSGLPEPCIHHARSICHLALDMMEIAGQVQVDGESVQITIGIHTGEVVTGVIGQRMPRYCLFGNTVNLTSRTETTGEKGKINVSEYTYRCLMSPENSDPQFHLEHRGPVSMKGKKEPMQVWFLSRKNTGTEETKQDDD
# T1 sequence (Q02108 1-690): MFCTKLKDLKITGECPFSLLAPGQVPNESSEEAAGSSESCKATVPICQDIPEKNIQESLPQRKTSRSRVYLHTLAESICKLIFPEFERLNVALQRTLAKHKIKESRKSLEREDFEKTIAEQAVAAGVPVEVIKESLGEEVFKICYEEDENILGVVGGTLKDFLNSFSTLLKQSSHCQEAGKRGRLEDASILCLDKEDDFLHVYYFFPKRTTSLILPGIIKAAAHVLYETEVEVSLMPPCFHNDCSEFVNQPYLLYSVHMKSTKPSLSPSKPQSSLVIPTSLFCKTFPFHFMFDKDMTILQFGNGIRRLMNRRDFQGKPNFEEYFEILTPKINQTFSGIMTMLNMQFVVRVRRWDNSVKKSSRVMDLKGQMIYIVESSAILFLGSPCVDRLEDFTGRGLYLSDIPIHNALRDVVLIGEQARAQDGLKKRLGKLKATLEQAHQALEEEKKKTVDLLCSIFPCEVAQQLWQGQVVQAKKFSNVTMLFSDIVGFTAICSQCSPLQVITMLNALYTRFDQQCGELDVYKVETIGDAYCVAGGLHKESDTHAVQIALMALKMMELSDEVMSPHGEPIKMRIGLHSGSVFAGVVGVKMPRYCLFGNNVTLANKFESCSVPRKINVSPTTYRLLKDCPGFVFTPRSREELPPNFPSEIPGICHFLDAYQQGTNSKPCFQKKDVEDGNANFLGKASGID
# In short: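 HEK293 cells expressing GloSensor 40F cGMP biosensor, pre-equilibrated with GloSensor substrate 90 min at 25 °C, then given compound (final 0.029–30000 nM) plus 10 μM DETA-NONOate; luminescence read after 55 min at room temperature. Normalized to 1% DMSO (low) and 30 μM Compound Y (high); Abs EC50 from 4-parameter fit, n=2, geometric mean.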
# [1] = test system: brain activity in awake rats; assay: Brain activation in rats measured by fMRI-BOLD (Example 11); type: in vivo, rat; conditions: single IV administration, vs peripherally restricted sGC stimulator
# Excerpt: Objective. Functional magnetic resonance imaging or functional MRI (fMRI) is a functional neuroimaging procedure using MRI technology that measures brain activity by detecting changes associated with blood flow. This technique relies on the fact that cerebral blood flow and neuronal activation are coupled. When an area of the brain is in use, blood flow to that region also increases. Awake rats were studied by fMRI to assess changes (“fingerprint”) in brain activity following a single intravenous administration of a compound of the invention
# Experimental Design. 24 male Sprague-Dawley rats weighing from 275-350 g were used. Following acclimation, the animals were placed in the restrainer and positioned in the magnet. Catheters were placed in each animal to allow for remote dosing when the animals were in the magnet. Scans were acquired continuously for 5 minutes prior to administration of either a vehicle or a compound of the invention to establish a baseline for the brain activity. Following the 5-minute baseline period, either the vehicle or the compound of the invention was administered to the rat and scans were acquired continuously for 30-45 minutes.
Compound,EC50 (sGC enzyme),brain activation (fMRI-BOLD) [1]
"Fc1ccccc1Cc1nc(-c2nc(C(F)(F)F)n[nH]2)cn2ncnc12 [Compound I-16, 8-(2-Fluorobenzyl)-6-(3-(trifluoromethyl)-1H-1,2,4-triazol-5-yl)-[1,2,4]triazolo[1,5-a]pyrazine]",≤ 100 nM,
"Fc1cccc(Cc2nc(-c3nc(C(F)(F)F)n[nH]3)cn3ccnc23)c1 [Compound I-2, 8-(3-Fluorobenzyl)-6-(3-(trifluoromethyl)-1H-1,2,4-triazol-5-yl)imidazo[1,2-a]pyrazine]",≤ 100 nM,
"Fc1cccc(Cc2nc(-c3nc(C(F)F)n[nH]3)cn3ccnc23)c1 [Compound I-3, 6-(3-(Difluoromethyl)-1H-1,2,4-triazol-5-yl)-8-(3-fluorobenzyl)imidazo[1,2-a]pyrazine]",100 to 1000 nM,
"Fc1ccccc1Cc1nc(-c2nc(C(F)(F)F)n[nH]2)cn2ccnc12 [Compound I-1, 8-(2-fluorobenzyl)-6-(3-(trifluoromethyl)-1H-1,2,4-triazol-5-yl)imidazo[1,2-a]pyrazine]",≤ 100 nM,a greater region of the brain is activated
"Fc1ccccc1Cc1nc(-c2nc(C(F)F)n[nH]2)cn2ccnc12 [Compound I-14, 8-(2-Fluorobenzyl)-6-(3-(difluoromethyl)-1H-1,2,4-triazol-5-yl)imidazo[1,2-a]pyrazine]",≤ 100 nM,
"Fc1cccc(Cc2nc(-c3nc(C(F)(F)F)n[nH]3)cn3ccnc23)c1F [Compound I-10, 8-(2,3-Difluorobenzyl)-6-(3-(trifluoromethyl)-1H-1,2,4-triazol-5-yl)imidazo[1,2-a]pyrazine]",≤ 100 nM,
"Fc1cccc(Cc2nc(-c3nc(C(F)F)n[nH]3)cn3ccnc23)c1F [Compound I-11, 8-(2,3-Difluorobenzyl)-6-(3-(difluoromethyl)-1H-1,2,4-triazol-5-yl)imidazo[1,2-a]pyrazine]",100 to 1000 nM,
